From ChEMBL document CHEMBL1201862, “PubChem BioAssay data set” (2004)
Active and inactive are the calls of the source.

Key:
[1] = test system: Streptococcus sp. 'group A'; assay: growth inhibition of control SK(-) GAS strain, dose response, counter-screen for streptokinase expression inhibitor project, luminescence, kanamycin, BacTiterGlo, confirmation (AID 1900); type: functional, organism-based
Streptokinase A = biological target: T1, Streptokinase A (Streptococcus pyogenes serotype M1, UniProt P10520); assay: S. pyogenes streptokinase expression inhibitors, potency, dose response, plasminogen activation absorbance, OD405 (AID 1914); type: functional, Streptococcus pyogenes M1 GAS;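 note: secreted streptokinase activity via plasminogen activation per viability signal from cell pellet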
T1 sequence (P10520 whole entry): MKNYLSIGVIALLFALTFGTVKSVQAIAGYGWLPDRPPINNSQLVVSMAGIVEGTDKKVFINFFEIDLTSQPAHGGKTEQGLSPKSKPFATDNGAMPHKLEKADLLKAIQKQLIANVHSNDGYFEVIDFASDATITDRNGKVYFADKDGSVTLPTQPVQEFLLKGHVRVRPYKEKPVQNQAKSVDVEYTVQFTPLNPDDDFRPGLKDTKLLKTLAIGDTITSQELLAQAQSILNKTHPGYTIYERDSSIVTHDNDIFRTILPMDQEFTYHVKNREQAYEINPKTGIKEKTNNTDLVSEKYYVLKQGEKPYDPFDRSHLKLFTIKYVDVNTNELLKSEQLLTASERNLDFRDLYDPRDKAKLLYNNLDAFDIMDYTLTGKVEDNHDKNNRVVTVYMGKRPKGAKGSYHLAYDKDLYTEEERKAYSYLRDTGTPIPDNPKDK

Streptococcus = assay: Group A Streptococcus viability loss, dose response, counter-screen for streptokinase expression inhibitor project, luminescence, BacTiterGlo (AID 1915); type: functional, organism-based;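 note: potency for reduction of bacterial viability or growth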
CHO-K1 = assay: (§1) Counterscreen for antagonists of the orexin 1 receptor (OX1R; HCRTR1): Homogeneous time resolved fluorescence (HTRF)-based cell-based dose response assay to identify antagonists of the parental CHO-K1 cell line. [Related pubchem assays (depositor defined):AID434989, AID435008, AID463079, AID485270, AID492963, AID492964, AID492965, AID493232, AID504699, AID504701]; type: functional; conditions: Cricetulus griseus
[2] = as §1, with “Fluorescence-based” for “Homogeneous time resolved fluorescence (HTRF)-based”, “cell-based high throughput” for “cell-based”, “CHO” for “CHO-K1”; type: functional
[3] = biological target: T2, Orexin/Hypocretin receptor type 1 (Homo sapiens, UniProt O43613); assay: Homogeneous Time Resolved Fluorescence (HTRF)-based cell-based high throughput dose response assay for antagonists of the orexin 1 receptor (OX1R; HCRTR1). [Related pubchem assays (depositor defined):AID434989, AID435008, AID463079, AID485270, AID492963, AID492964, AID492965, AID493232, AID504717, AID504718]; type: functional
T2 sequence (O43613 whole entry): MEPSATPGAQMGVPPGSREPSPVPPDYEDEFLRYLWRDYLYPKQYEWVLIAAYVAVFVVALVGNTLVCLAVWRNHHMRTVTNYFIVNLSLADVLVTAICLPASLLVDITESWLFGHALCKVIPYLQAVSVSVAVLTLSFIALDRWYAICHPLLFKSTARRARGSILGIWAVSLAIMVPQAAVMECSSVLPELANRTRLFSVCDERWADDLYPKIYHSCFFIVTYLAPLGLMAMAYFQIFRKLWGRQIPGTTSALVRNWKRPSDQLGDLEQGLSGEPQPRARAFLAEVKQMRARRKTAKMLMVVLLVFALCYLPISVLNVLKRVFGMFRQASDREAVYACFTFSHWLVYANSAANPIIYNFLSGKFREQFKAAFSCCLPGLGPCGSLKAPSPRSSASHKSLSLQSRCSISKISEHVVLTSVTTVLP

[4] = biological target: T2, Orexin/Hypocretin receptor type 1; assay: Fluorescence-based cell-based high throughput dose response assay for antagonists of the orexin 1 receptor (OX1R; HCRTR1). [Related pubchem assays (depositor defined):AID434989, AID435008, AID463079, AID485270, AID492963, AID492964, AID492965, AID493232, AID504717, AID504718]; type: functional
Orexin receptor type 2 [5] = biological target: T3, Orexin receptor type 2 (Homo sapiens, UniProt O43614); assay: Counterscreen assay for antagonists of the orexin 1 receptor (OX1R; HCRTR1): Fluorescence-based cell-based dose response assay for antagonists of the orexin 2 receptor (OX2R; HCRTR2), run by assay provider.; type: functional
T3 sequence (O43614 whole entry): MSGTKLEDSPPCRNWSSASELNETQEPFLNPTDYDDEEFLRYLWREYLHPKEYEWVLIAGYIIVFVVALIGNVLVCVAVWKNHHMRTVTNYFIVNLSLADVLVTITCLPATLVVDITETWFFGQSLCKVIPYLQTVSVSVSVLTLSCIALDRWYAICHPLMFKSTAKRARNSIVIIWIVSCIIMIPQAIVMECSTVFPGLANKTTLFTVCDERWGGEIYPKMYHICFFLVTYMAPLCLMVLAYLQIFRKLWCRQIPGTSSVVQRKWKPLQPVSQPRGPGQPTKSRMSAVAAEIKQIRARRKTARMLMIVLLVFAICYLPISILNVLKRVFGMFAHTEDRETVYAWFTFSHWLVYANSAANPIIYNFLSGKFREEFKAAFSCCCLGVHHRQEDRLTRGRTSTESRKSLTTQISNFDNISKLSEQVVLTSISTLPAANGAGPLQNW

Orexin receptor type 2 [6] = biological target: T3, Orexin receptor type 2; assay: Counterscreen assay for antagonists of the orexin 1 receptor (OX1R; HCRTR1): Homogeneous Time Resolved Fluorescence (HTRF)-based cell-based dose response assay for antagonists of the orexin 2 receptor (OX2R; HCRTR2), run by assay provider.; type: functional
Melanocortin receptor 4 = Melanocortin receptor 4 (Homo sapiens, UniProt P32245); assay: MC4R antagonist potency on cAMP, dose response, cell-based, TR-FRET, biased antagonists (AID 602298); type: functional;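 note: antagonist potency against agonist-stimulated cAMP production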
[7] = nonselective inhibitors of cellular cAMP signaling, dose response, counter-screen for MC4R biased antagonist project, cell-based, TR-FRET cAMP detection (AID 602305); type: functional;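 note: U2OS cells stimulated with forskolin near its EC80 as the cAMP inducer; potency is for inhibition of forskolin-stimulated cAMP signaling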
[8] = biological target: Benomyl/methotrexate resistance protein (Candida albicans, UniProt P28873); assay: CaMdr1 efflux pump inhibitor potency, dose response, singleplex, Cherry Pick1 hits (AID 588608); type: functional
Chain of Benomyl/methotrexate resistance protein (P28873 whole entry): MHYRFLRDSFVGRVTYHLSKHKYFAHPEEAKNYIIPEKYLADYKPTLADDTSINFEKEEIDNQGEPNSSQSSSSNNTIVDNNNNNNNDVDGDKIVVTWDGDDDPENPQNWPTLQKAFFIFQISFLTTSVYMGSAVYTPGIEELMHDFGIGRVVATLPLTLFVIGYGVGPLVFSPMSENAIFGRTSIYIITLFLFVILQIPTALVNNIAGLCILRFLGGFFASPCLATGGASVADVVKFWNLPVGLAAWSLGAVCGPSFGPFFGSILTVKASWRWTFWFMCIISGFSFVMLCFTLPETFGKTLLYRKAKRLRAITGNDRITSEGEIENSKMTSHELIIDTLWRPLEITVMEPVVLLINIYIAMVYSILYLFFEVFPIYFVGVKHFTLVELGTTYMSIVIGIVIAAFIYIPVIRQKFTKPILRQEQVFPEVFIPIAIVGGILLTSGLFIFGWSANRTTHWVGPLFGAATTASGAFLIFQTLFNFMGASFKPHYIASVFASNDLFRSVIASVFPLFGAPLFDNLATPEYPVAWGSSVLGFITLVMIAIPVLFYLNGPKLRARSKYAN

Chain of Melanocortin receptor 4 (P32245 whole entry): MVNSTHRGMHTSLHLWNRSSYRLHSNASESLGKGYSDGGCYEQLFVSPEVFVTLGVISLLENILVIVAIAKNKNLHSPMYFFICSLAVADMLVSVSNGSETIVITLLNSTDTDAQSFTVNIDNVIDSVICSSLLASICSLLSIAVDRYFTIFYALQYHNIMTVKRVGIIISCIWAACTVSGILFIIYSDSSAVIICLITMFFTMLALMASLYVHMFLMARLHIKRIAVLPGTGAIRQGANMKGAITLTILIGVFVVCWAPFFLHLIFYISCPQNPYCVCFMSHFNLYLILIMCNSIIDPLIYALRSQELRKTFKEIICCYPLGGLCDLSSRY

Compound	EC50 [1]	EC50 (Streptokinase A)	EC50 (Streptococcus)	IC50 (CHO-K1)	IC50 [2]	IC50 [3]	IC50 [4]	IC50 (Orexin receptor type 2 [5])	IC50 (Orexin receptor type 2 [6])	IC50 (Melanocortin receptor 4)	IC50 [7]	EC50 [8]
Cc1cnc(NC(=O)c2cc3c(C)nn(-c4ccccc4)c3s2)s1	2.5 µM (active)	> 150 µM (not active)	> 150 µM (not active)	> 66.2 µM (inactive)	> 49.7 µM (inactive)	2.21 µM (active)	2.37 µM (active)	60.4 µM (inactive)	> 50 µM (inactive)	–	–	–
O=S(=O)(c1ccc(Br)c2nsnc12)N1CCOCC1	–	–	–	–	–	–	–	–	–	> 64.6 µM (inactive)	> 64.6 µM (inactive)	–
COc1ccccc1-c1sc2ccccc2c1-c1ccc(OCCN2CCCCC2)cc1	–	–	–	–	–	–	–	–	–	–	–	18.9 µM (active)
COc1ccc([C@@H]2CC=C(C(=O)O)[C@H](c3cccc(Cl)c3)N2S(=O)(=O)c2ccccc2C)cc1	–	–	–	> 66.2 µM (inactive)	> 49.7 µM (inactive)	1.09 µM (active)	14.6 µM (inactive)	17.1 µM (inactive)	3.32 µM (active)	–	–	–
